This is an account of results in patent US9095623B2, “Terminally-functionalized conjugates and uses thereof” (SmartCells, Inc., priority 2009, dated 2015).

The assay can be described thus: Blood glucose depression profile after subcutaneous injection in fasted normal non-diabetic rats. The class given is in vivo, Male Sprague-Dawley rats. The method, then:
Subcutaneous injections of the insulin-dextran were administered using 0.25 ml of a sterilized 1×PBS solution ([…] of equivalent insulin/ml) behind the neck of fasted normal non-diabetic rats (Male Sprague-Dawley, 200-250 g, n=4). Blood samples were collected via tail vein bleeding at −15 and 0 minutes, and at 15, 30, 45, 60, 90, 120, 180, 240, 300 and 360 minutes after injection.
This example evaluates the in vivo pharmacodynamic profile of subcutaneously administered insulin-glycogen. The insulin-glycogen conjugate was synthesized according to Example 8. The bioactivity of the insulin-glycogen conjugate was evaluated by injecting a 2.5 equivalent U of insulin/kg dose behind the neck of fasted normal non-diabetic rats (Male Sprague-Dawley, 200-250 g, n=4). Blood samples were collected via tail vein bleeding at −15 and 0 minutes, and at 15, 30, 45, 60, 90, 120, 180, 240, 300 and 360 minutes after injection. […] This rapid action and elimination profile is due to the rapid enzymatic digestion of the high MW glycogen polymer chain following subcutaneous injection.

[1] abbreviates: 0.25 ml of 20 U of equivalent insulin/ml, FIG. 5.

Take “insulin-glycogen: comparative conjugate of insulin and oyster glycogen (Type II) made by CNBr coupling, Example 8”: where the note is “2.5 equivalent U of insulin/kg, FIG. 6”, the “glucose lowering as compared to the insulin-dextran conjugates” value was “lower glucose levels much more rapidly and to a greater extent”. With “insulin-dextran: comparative conjugate of recombinant human insulin and dextran (MW 70K) made by CNBr coupling”, under setting [1], the “time serum glucose levels remain depressed post injection” value was “at least five” and the “time to reach the glucose nadir (Tnadir)” value is given as “about 3 hours”.
